Test system: B-cell lymphoma Daudi cells
Experiment: ABDNAZ-induced apoptosis of B-cell lymphoma Daudi cells (sub-G1 cells, propidium iodide staining, flow cytometry)
Assay type: cell-based
Method: B-cell lymphoma Daudi cells were grown and maintained in Dulbecco's modified essential medium (DMEM) (INVITROGEN™, Grand Island, N.Y.) supplemented with 10% fetal calf serum, 100 units/mL penicillin, and 100 μg/mL streptomycin in a 37° C. humidified incubator with a mixture of 95% air and 5% CO2. Experiments were performed on exponentially growing cells with a cell population doubling time of approximately 20-36 hours.
After exposing the B-cell lymphoma Daudi cells to ABDNAZ, apoptotic cell death was quantitated by measuring the number of subdiploid (sub-G1) cells stained with propidium iodide (PI), according to a procedure described previously by Ning and coworkers. Ning, S., and Knox, S. J. in Int. J. Radiat. Oncol. Biol. Phys. (2004) 60:197-203. Briefly, ABDNAZ-treated and untreated control cells were collected and fixed with cold 100% ethanol. Cells were pelleted, treated with 100 μg/mL of RNase A in PBS-EDTA solution for 30 min and stained with 50 μg/mL of PI for 10 min at room temperature. The DNA content was analyzed with a FACScan flowcytometer (Becton Dickison, San Jose, Calif.). The percentage of cells in the sub-G1 phase was calculated as described previously by Ning and coworkers.
To examine whether ABDNAZ-induced apoptotic cell death was due to the generation of reactive oxygen species (ROS), Daudi cells were treated with a glutathione (GSH) precursor, N-acetylcysteine (NAC), and a GSH synthesis inhibitor, buthionine-(S,R)-sulfoxime (BSO), and the level of apoptosis was measured.

`O=C(CBr)N1CC([N+](=O)[O-])([N+](=O)[O-])C1` [ABDNAZ, 1-bromoacetyl-3,3-dinitroazetidine] was tested, and the Daudi cell apoptosis (2 mM ABDNAZ, measured at 24 hours (FIG. 1)) was 30%, the Daudi cell apoptosis (4 mM ABDNAZ, measured at 72 hours after exposure (FIG. 1)) was 45% and the ABDNAZ-induced apoptosis (Daudi cells pre-treated with N-acetylcysteine (GSH precursor) (FIG. 2)) was 5%. For the same compound, the ABDNAZ-induced apoptosis (Daudi cells pre-treated with buthionine-(S,R)-sulfoxime (GSH synthesis inhibitor) (FIG. 2)) was 25% and the ABDNAZ-induced apoptosis (Daudi cells, ABDNAZ without pre-treatment (FIG. 2)) was 11%.
